Test system: not listed separately
Assay: Oral bioavailability in ICR mouse at 12.5 mg/kg administered as gavage by LC-MS/MS analysis
Assay type: ADME, organism-based
Conditions: in vivo

bioavailability [%]	Structure (SMILES)
72	COCCN1CCN(c2ccc(C(=O)Nc3n[nH]c4nc(-c5c(Cl)c(OC)cc(OC)c5Cl)ccc34)cc2)CC1

Target: Fibroblast growth factor receptor 1 (Homo sapiens, UniProt P11362)
Assay: Inhibition of recombinant human FGFR1 using poly (Glu,Tyr)4:1 as substrate incubated for 60 mins by ELISA
Conditions: not given

Sequence of Fibroblast growth factor receptor 1 (P11362 whole entry): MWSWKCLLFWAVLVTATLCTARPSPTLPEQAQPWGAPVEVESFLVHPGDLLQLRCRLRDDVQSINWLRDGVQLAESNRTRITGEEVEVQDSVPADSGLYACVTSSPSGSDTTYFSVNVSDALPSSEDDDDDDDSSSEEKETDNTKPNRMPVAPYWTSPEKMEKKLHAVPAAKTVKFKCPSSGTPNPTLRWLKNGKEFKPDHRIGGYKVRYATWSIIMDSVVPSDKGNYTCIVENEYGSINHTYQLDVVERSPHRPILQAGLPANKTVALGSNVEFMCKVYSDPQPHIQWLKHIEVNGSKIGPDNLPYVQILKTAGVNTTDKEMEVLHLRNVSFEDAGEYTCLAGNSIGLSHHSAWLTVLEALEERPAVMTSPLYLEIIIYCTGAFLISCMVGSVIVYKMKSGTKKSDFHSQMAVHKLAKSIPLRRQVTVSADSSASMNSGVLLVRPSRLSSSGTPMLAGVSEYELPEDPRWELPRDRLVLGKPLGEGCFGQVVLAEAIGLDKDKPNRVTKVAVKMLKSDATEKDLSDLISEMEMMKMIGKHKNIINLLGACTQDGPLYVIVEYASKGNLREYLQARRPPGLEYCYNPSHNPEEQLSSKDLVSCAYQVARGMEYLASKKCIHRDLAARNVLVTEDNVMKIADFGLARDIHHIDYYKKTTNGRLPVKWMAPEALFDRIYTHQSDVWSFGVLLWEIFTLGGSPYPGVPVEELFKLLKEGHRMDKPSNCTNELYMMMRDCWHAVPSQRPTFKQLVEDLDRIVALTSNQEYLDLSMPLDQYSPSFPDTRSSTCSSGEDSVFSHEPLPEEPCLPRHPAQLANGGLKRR

IC50 [nM]	Structure (SMILES)
10.5	COc1cc(OC)c(Cl)c(-c2ccc3c(NC(=O)c4cnc(N5CCN(C)CC5)cn4)n[nH]c3n2)c1Cl
0.6	C=CCN1CCN(c2ccc(C(=O)Nc3n[nH]c4nc(-c5c(Cl)c(OC)cc(OC)c5Cl)ccc34)cc2)CC1
14	COc1cc(OC)c(Cl)c(-c2ccc3c(NC(=O)c4ccc(N5CCN(C)CC5)cc4Cl)n[nH]c3n2)c1Cl
0.3	COCCN1CCN(c2ccc(C(=O)Nc3n[nH]c4nc(-c5c(Cl)c(OC)cc(OC)c5Cl)ccc34)cc2)CC1

Target: Fibroblast growth factor receptor 2 (Homo sapiens, UniProt P21802)
Sequence (P21802 whole entry): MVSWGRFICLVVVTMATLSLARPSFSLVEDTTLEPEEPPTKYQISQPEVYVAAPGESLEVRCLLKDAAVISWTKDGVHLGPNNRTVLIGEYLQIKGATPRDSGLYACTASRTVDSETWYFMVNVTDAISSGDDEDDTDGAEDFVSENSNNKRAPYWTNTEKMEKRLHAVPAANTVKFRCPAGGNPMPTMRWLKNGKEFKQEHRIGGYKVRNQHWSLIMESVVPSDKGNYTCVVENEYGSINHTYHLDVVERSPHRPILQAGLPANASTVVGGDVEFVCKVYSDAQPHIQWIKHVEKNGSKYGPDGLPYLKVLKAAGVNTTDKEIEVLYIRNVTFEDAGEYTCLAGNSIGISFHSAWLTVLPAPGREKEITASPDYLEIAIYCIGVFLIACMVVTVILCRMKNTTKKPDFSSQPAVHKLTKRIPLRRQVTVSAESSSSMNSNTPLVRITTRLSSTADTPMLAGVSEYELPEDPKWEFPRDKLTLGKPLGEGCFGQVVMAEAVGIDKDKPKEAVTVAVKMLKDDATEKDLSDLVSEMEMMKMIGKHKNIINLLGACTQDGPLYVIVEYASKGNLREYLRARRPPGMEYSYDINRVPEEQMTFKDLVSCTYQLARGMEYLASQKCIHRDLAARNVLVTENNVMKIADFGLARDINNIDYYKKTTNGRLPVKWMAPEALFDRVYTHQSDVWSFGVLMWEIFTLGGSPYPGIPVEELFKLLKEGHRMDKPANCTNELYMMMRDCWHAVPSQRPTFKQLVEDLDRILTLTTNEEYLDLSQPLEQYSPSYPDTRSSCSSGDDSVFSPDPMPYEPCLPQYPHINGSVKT
Conditions: not given

IC50 [nM]	Structure (SMILES)
0.7	COCCN1CCN(c2ccc(C(=O)Nc3n[nH]c4nc(-c5c(Cl)c(OC)cc(OC)c5Cl)ccc34)cc2)CC1

Test system: not listed separately
Assay: Volume of distribution in ICR mouse at 2 mg/kg, iv by LC-MS/MS analysis
Assay type: ADME, organism-based
Conditions: in vivo

Vd [L/kg]	Structure (SMILES)
4.51	COCCN1CCN(c2ccc(C(=O)Nc3n[nH]c4nc(-c5c(Cl)c(OC)cc(OC)c5Cl)ccc34)cc2)CC1

Test system: NCI-H1581
Conditions: Homo sapiens
Description: Antitumor activity against human NCI-H1581 cells xenografted in nude mouse assessed as tumor growth inhibition administered orally qd for 21 days

Structure (SMILES)	TGI
COCCN1CCN(c2ccc(C(=O)Nc3n[nH]c4nc(-c5c(Cl)c(OC)cc(OC)c5Cl)ccc34)cc2)CC1	Dose-dependent effect

Test system: RT-112
Assay: Antiproliferative activity against human RT112 cells after 72 hrs by CCK-8 assay
Assay type: functional, cell-based
Conditions: RT-112, 72 h

Structure (SMILES)	IC50 [nM]
COCCN1CCN(c2ccc(C(=O)Nc3n[nH]c4nc(-c5c(Cl)c(OC)cc(OC)c5Cl)ccc34)cc2)CC1	< 0.2

Target: Fibroblast growth factor receptor 4 (Homo sapiens, UniProt P22455)
Sequence (P22455 whole entry): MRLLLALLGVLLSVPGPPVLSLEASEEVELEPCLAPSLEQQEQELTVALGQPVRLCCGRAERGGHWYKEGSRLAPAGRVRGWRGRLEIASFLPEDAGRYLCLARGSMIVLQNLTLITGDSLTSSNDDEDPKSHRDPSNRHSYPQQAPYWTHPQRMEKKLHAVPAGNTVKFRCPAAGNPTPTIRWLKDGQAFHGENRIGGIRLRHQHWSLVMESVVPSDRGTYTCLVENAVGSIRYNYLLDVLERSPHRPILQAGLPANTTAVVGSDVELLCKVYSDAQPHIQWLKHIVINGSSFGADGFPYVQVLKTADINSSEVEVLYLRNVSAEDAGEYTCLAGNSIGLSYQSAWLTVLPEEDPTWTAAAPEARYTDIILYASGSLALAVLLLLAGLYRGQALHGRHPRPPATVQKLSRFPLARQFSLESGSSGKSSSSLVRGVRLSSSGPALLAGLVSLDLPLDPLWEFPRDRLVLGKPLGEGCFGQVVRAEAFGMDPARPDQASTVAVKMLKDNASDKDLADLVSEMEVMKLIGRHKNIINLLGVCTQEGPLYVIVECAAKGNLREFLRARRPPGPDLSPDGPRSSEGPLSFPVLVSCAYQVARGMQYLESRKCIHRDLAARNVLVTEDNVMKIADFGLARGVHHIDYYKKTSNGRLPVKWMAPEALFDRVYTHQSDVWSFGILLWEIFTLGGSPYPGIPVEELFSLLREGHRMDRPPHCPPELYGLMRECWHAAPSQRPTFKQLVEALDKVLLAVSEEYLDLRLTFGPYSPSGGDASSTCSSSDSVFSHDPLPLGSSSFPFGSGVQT
Conditions: not given

IC50 [nM]	Structure (SMILES)
52.7	COCCN1CCN(c2ccc(C(=O)Nc3n[nH]c4nc(-c5c(Cl)c(OC)cc(OC)c5Cl)ccc34)cc2)CC1

Test system: not listed separately
Assay: Half life in ICR mouse at 2 mg/kg, iv by LC-MS/MS analysis
Assay type: ADME, organism-based
Conditions: in vivo

half-life [h]	Structure (SMILES)
3.13	COCCN1CCN(c2ccc(C(=O)Nc3n[nH]c4nc(-c5c(Cl)c(OC)cc(OC)c5Cl)ccc34)cc2)CC1

Test system: not listed separately
Assay: Toxicity in nude mouse xenografted with human NCI-H1581 cells assessed as body weight loss at 12.5 mg/kg, po qd administered for 21 days
Assay type: organism-based
Conditions: in vivo, 504 h

Structure (SMILES)	Activity
COCCN1CCN(c2ccc(C(=O)Nc3n[nH]c4nc(-c5c(Cl)c(OC)cc(OC)c5Cl)ccc34)cc2)CC1	Non-Toxic

Test system: not listed separately
Assay: Antiproliferative activity against human KATO III cells after 72 hrs by CCK-8 assay
Assay type: functional, cell-based
Conditions: not given

Structure (SMILES)	IC50 [nM]
COCCN1CCN(c2ccc(C(=O)Nc3n[nH]c4nc(-c5c(Cl)c(OC)cc(OC)c5Cl)ccc34)cc2)CC1	< 0.4

Test system: not listed separately
Assay: Cmax in ICR mouse at 12.5 mg/kg administered as oral gavage by LC-MS/MS analysis
Assay type: ADME, organism-based
Parameters: dose 12.5 mg/kg, route oral
Conditions: in vivo

Cmax [ng/mL]	Structure (SMILES)
1650	COCCN1CCN(c2ccc(C(=O)Nc3n[nH]c4nc(-c5c(Cl)c(OC)cc(OC)c5Cl)ccc34)cc2)CC1

Test system: not listed separately
Assay: Clearance in ICR mouse at 2 mg/kg, iv by LC-MS/MS analysis
Assay type: ADME, organism-based
Conditions: in vivo

clearance [mL/min/kg]	Structure (SMILES)
16.6	COCCN1CCN(c2ccc(C(=O)Nc3n[nH]c4nc(-c5c(Cl)c(OC)cc(OC)c5Cl)ccc34)cc2)CC1

Test system: not listed separately
Assay: Toxicity in nude mouse xenografted with human NCI-H1581 cells assessed as body weight loss at 50 mg/kg, po qd administered for 21 days
Assay type: organism-based
Conditions: in vivo, 504 h

Structure (SMILES)	Activity
COCCN1CCN(c2ccc(C(=O)Nc3n[nH]c4nc(-c5c(Cl)c(OC)cc(OC)c5Cl)ccc34)cc2)CC1	Non-Toxic

Test system: not listed separately
Assay: AUC(0 to infinity) in ICR mouse at 12.5 mg/kg administered as oral gavage by LC-MS/MS analysis
Assay type: ADME, organism-based
Parameters: dose 12.5 mg/kg, route oral, time infinity
Conditions: in vivo

AUC(0-inf) [ng·h/mL]	Structure (SMILES)
9010	COCCN1CCN(c2ccc(C(=O)Nc3n[nH]c4nc(-c5c(Cl)c(OC)cc(OC)c5Cl)ccc34)cc2)CC1

Test system: not listed separately
Assay: Cmax in ICR mouse at 2 mg/kg, iv by LC-MS/MS analysis
Assay type: ADME, organism-based
Parameters: dose 2 mg/kg, route intravenous
Conditions: in vivo

Cmax [ng/mL]	Structure (SMILES)
826	COCCN1CCN(c2ccc(C(=O)Nc3n[nH]c4nc(-c5c(Cl)c(OC)cc(OC)c5Cl)ccc34)cc2)CC1

Target: Fibroblast growth factor receptor 3 (Homo sapiens, UniProt P22607)
Sequence (P22607 whole entry): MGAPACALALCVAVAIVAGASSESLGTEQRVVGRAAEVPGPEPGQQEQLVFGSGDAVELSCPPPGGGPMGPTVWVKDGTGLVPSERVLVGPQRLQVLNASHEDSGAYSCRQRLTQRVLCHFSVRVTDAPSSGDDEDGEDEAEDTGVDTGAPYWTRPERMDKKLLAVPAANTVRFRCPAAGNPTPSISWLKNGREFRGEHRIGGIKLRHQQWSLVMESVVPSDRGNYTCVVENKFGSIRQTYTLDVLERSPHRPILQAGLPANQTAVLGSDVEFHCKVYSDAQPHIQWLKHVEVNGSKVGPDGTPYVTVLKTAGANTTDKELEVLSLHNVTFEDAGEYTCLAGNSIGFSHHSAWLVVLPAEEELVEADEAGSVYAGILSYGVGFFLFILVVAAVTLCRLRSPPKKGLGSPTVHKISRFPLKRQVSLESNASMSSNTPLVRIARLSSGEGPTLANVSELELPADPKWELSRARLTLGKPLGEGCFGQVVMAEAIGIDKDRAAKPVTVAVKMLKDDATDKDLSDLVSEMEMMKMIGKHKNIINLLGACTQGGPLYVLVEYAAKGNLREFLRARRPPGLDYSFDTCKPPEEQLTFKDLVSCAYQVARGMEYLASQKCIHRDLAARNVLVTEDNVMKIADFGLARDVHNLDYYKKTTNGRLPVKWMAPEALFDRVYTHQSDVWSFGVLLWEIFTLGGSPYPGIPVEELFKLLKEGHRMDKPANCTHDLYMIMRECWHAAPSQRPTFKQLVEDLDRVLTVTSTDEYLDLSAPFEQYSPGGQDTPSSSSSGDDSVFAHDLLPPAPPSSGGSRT
Assay: Inhibition of human FGFR3 using poly (Glu,Tyr)4:1 as substrate incubated for 60 mins by ELISA
Conditions: not given

IC50 [nM]	Structure (SMILES)
2	COCCN1CCN(c2ccc(C(=O)Nc3n[nH]c4nc(-c5c(Cl)c(OC)cc(OC)c5Cl)ccc34)cc2)CC1

Test system: SNU-16
Assay: Antiproliferative activity against human SNU16 cells after 72 hrs by CCK-8 assay
Assay type: functional, cell-based
Conditions: SNU-16, 72 h

IC50 [nM]	Structure (SMILES)
< 0.2	COCCN1CCN(c2ccc(C(=O)Nc3n[nH]c4nc(-c5c(Cl)c(OC)cc(OC)c5Cl)ccc34)cc2)CC1

Test system: KG-1
Assay: Antiproliferative activity against human KG1 cells after 72 hrs by CCK-8 assay
Assay type: functional, cell-based
Conditions: KG-1, 72 h

Structure (SMILES)	IC50 [nM]
COCCN1CCN(c2ccc(C(=O)Nc3n[nH]c4nc(-c5c(Cl)c(OC)cc(OC)c5Cl)ccc34)cc2)CC1	< 0.2

Test system: NCI-H1581
Assay: Antitumor activity against human NCI-H1581 cells xenografted in nude mouse assessed as tumor growth inhibition at 12.5 mg/kg, po qd administered for 21 days
Assay type: functional
Conditions: 504 h, read-out: TGI

Structure (SMILES)	inhibition in vivo at 12.5 mg/kg [%]
COCCN1CCN(c2ccc(C(=O)Nc3n[nH]c4nc(-c5c(Cl)c(OC)cc(OC)c5Cl)ccc34)cc2)CC1	54

Test system: NCI-H1581
Assay: Antiproliferative activity against human NCI-H1581 cells after 72 hrs by CCK-8 assay
Assay type: functional, cell-based
Conditions: NCI-H1581, 72 h

IC50 [nM]	Structure (SMILES)
60.6	COc1cc(OC)c(Cl)c(-c2ccc3c(NC(=O)c4cnc(N5CCN(C)CC5)cn4)n[nH]c3n2)c1Cl
3.3	C=CCN1CCN(c2ccc(C(=O)Nc3n[nH]c4nc(-c5c(Cl)c(OC)cc(OC)c5Cl)ccc34)cc2)CC1
27.6	COc1cc(OC)c(Cl)c(-c2ccc3c(NC(=O)c4ccc(N5CCN(C)CC5)cc4Cl)n[nH]c3n2)c1Cl
0.7	COCCN1CCN(c2ccc(C(=O)Nc3n[nH]c4nc(-c5c(Cl)c(OC)cc(OC)c5Cl)ccc34)cc2)CC1

Test system: NCI-H1581
Assay: Antitumor activity against human NCI-H1581 cells xenografted in nude mouse assessed as tumor growth inhibition at 50 mg/kg, po qd administered for 21 days
Assay type: functional
Conditions: 504 h, read-out: TGI

Structure (SMILES)	inhibition in vivo at 50 mg/kg [%]
COCCN1CCN(c2ccc(C(=O)Nc3n[nH]c4nc(-c5c(Cl)c(OC)cc(OC)c5Cl)ccc34)cc2)CC1	100

Test system: not listed separately
Assay: AUC(0 to infinity) in ICR mouse at 2 mg/kg, iv by LC-MS/MS analysis
Assay type: ADME, organism-based
Parameters: dose 2 mg/kg, time infinity, route intravenous
Conditions: in vivo

AUC(0-inf) [ng·h/mL]	Structure (SMILES)
2000	COCCN1CCN(c2ccc(C(=O)Nc3n[nH]c4nc(-c5c(Cl)c(OC)cc(OC)c5Cl)ccc34)cc2)CC1

Test system: not listed separately
Assay: Protein binding in mouse plasma at 5 uM after 4 hrs by equilibrium dialysis assay
Assay type: ADME, cell-free
Conditions: read-out: PPB (converted)

fraction unbound at 4 h, 5 µM	Structure (SMILES)
0.004	COCCN1CCN(c2ccc(C(=O)Nc3n[nH]c4nc(-c5c(Cl)c(OC)cc(OC)c5Cl)ccc34)cc2)CC1

Test system: not listed separately
Assay: Half life in ICR mouse at 12.5 mg/kg administered as oral gavage by LC-MS/MS analysis
Assay type: ADME, organism-based
Conditions: in vivo

half-life [h]	Structure (SMILES)
2.76	COCCN1CCN(c2ccc(C(=O)Nc3n[nH]c4nc(-c5c(Cl)c(OC)cc(OC)c5Cl)ccc34)cc2)CC1

From ChEMBL document CHEMBL4425121, “Discovery of Substituted 1H-Pyrazolo[3,4-b]pyridine Derivatives as Potent and Selective FGFR Kinase Inhibitors” (ACS Med Chem Lett, 2016)
